Laboratory results published in publication PMC5218480 (PLoS ONE, 2017).

System: MV-4-11 cells
Experiment: Gene expression microarray analysis (Affymetrix PrimeView) and GSEA
Assay type: cell-based, human
Set-up: RFU PODN (11730768_x_at) / Fold change /veh PODN (11730768_x_at) / RFU LINC00158 (11744669_a_at) / Fold change /veh LINC00158 (11744669_a_at) / RFU DUSP10 (11751237_a_at) / Fold change /veh DUSP10 (11751237_a_at) / RFU ID3 (11757404_x_at) / Fold change /veh ID3 (11757404_x_at) / RFU PLEKHG5 (11737974_s_at) / Fold change /veh PLEKHG5 (11737974_s_at) / RFU LRRC4B (11730491_at) / Fold change /veh LRRC4B (11730491_at) / RFU GIMAP4 (11747438_a_at) / Fold change /veh GIMAP4 (11747438_a_at) / RFU KRT8 (11758183_x_at) / Fold change /veh KRT8 (11758183_x_at) / RFU CNN1 (11734310_a_at) / Fold change /veh CNN1 (11734310_a_at) / RFU VPS37D (11726825_at) / Fold change /veh VPS37D (11726825_at) / RFU C10orf10 (11716522_x_at) / Fold change /veh C10orf10 (11716522_x_at) / RFU KIR2DL2 /// KIR2DL4 /// KIR2DL5A /// KIR2DL5B /// KIR2DS1 /// KIR2DS2 /// KIR2DS3 /// KIR2DS4 /// KIR3DL3 /// KIR3DL3 /// KIR3DS1 (11738374_at) / Fold change /veh KIR2DL2 /// KIR2DL4 /// KIR2DL5A /// KIR2DL5B /// KIR2DS1 /// KIR2DS2 /// KIR2DS3 /// KIR2DS4 /// KIR3DL3 /// KIR3DL3 /// KIR3DS1 (11738374_at) / RFU C1QL1 (11718748_at) / Fold change /veh C1QL1 (11718748_at) / RFU TMPRSS4 (11747572_a_at) / Fold change /veh TMPRSS4 (11747572_a_at) / RFU HAMP (11756126_x_at) / Fold change /veh HAMP (11756126_x_at) / RFU RNFT2 (11725882_a_at) / Fold change /veh RNFT2 (11725882_a_at) / RFU NR4A2 (11747474_a_at) / Fold change /veh NR4A2 (11747474_a_at) / RFU ABCC12 (11746883_a_at) / Fold change /veh ABCC12 (11746883_a_at) / RFU TMEM136 (11760407_x_at) / Fold change /veh TMEM136 (11760407_x_at) / RFU CLDN22 /// WWC2 (11732394_at) / Fold change /veh CLDN22 /// WWC2 (11732394_at) / RFU HLA-DPB1 (11760878_x_at) / Fold change /veh HLA-DPB1 (11760878_x_at) / RFU SPINT1 (11716480_a_at) / Fold change /veh SPINT1 (11716480_a_at) / RFU GAP43 (11754022_s_at) / Fold change /veh GAP43 (11754022_s_at) / RFU A4GNT (11735810_at) / Fold change /veh A4GNT (11735810_at) / RFU PRB3 (11715151_x_at) / Fold change /veh PRB3 (11715151_x_at) / RFU TUBB4B (11761932_at) / Fold change /veh TUBB4B (11761932_at) / RFU CAPN14 (11732068_a_at) / Fold change /veh CAPN14 (11732068_a_at) / RFU TMCC2 (11721928_a_at) / Fold change /veh TMCC2 (11721928_a_at) / RFU IRGQ (11745062_a_at) / Fold change /veh IRGQ (11745062_a_at) / RFU FAM174B (11720279_a_at) / Fold change /veh FAM174B (11720279_a_at) / RFU TMPRSS4 (11748680_a_at) / Fold change /veh TMPRSS4 (11748680_a_at) / RFU FAM212B (11763350_a_at) / Fold change /veh FAM212B (11763350_a_at) / RFU PLEKHG5 (11743358_a_at) / Fold change /veh PLEKHG5 (11743358_a_at) / RFU ZSCAN30 (11745921_a_at) / Fold change /veh ZSCAN30 (11745921_a_at) / RFU CMKLR1 (11741424_a_at) / Fold change /veh CMKLR1 (11741424_a_at) / RFU LOC101060620 /// MAPK8IP1 (11723275_at) / Fold change /veh LOC101060620 /// MAPK8IP1 (11723275_at) / RFU SPTSSB (11747773_x_at) / Fold change /veh SPTSSB (11747773_x_at) / RFU PRSS12 (11739890_at) / Fold change /veh PRSS12 (11739890_at) / RFU BIN1 (11741810_x_at) / Fold change /veh BIN1 (11741810_x_at) / RFU WNT11 (11732464_a_at) / Fold change /veh WNT11 (11732464_a_at) / RFU C10orf10 (11716521_a_at) / Fold change /veh C10orf10 (11716521_a_at) / RFU C5orf56 (11738089_at) / Fold change /veh C5orf56 (11738089_at) / RFU CYB561 (11721691_x_at) / Fold change /veh CYB561 (11721691_x_at) / RFU ANKRD19P (11752326_a_at) / Fold change /veh ANKRD19P (11752326_a_at) / RFU OR2T12 /// OR2T33 /// OR2T8 (11738714_s_at) / Fold change /veh OR2T12 /// OR2T33 /// OR2T8 (11738714_s_at) / RFU VCAN (11748164_a_at) / Fold change /veh VCAN (11748164_a_at) / RFU JSRP1 (11732532_at) / Fold change /veh JSRP1 (11732532_at) / RFU KRTAP10-11 (11738290_x_at) / Fold change /veh KRTAP10-11 (11738290_x_at) / RFU MYO3A (11730013_a_at) / Fold change /veh MYO3A (11730013_a_at) / RFU EBF3 (11725865_a_at) / Fold change /veh EBF3 (11725865_a_at) / RFU CAMK2N1 (11719241_x_at) / Fold change /veh CAMK2N1 (11719241_x_at) / RFU C5orf56 (11738088_a_at) / Fold change /veh C5orf56 (11738088_a_at) / RFU OLFML3 (11715873_a_at) / Fold change /veh OLFML3 (11715873_a_at) / RFU LOC100653217 /// NTM (11731650_a_at) / Fold change /veh LOC100653217 /// NTM (11731650_a_at) / RFU MAPK11 (11762145_a_at) / Fold change /veh MAPK11 (11762145_a_at) / RFU FIZ1 (11724087_x_at) / Fold change /veh FIZ1 (11724087_x_at) / RFU OASL (11726364_x_at) / Fold change /veh OASL (11726364_x_at) / RFU SOX15 (11748057_x_at) / Fold change /veh SOX15 (11748057_x_at) / RFU CD79A (11719716_a_at) / Fold change /veh CD79A (11719716_a_at) / RFU HIST1H1D (11736915_at) / Fold change /veh HIST1H1D (11736915_at) / RFU CASKIN2 (11723855_a_at) / Fold change /veh CASKIN2 (11723855_a_at) / RFU LOC730098 (11760151_x_at) / Fold change /veh LOC730098 (11760151_x_at) / RFU OR4N2 (11742367_at) / Fold change /veh OR4N2 (11742367_at) / RFU PRRT2 (11749266_a_at) / Fold change /veh PRRT2 (11749266_a_at) / RFU SNX32 (11753110_a_at) / Fold change /veh SNX32 (11753110_a_at) / RFU CDHR5 (11726645_a_at) / Fold change /veh CDHR5 (11726645_a_at) / RFU RCAN1 (11760418_a_at) / Fold change /veh RCAN1 (11760418_a_at) / RFU FAM167A (11723789_a_at) / Fold change /veh FAM167A (11723789_a_at) / RFU FAM26E (11764081_at) / Fold change /veh FAM26E (11764081_at) / RFU ISYNA1 (11749810_s_at) / Fold change /veh ISYNA1 (11749810_s_at) / RFU ACY1 (11761880_at) / Fold change /veh ACY1 (11761880_at) / RFU 11764098_at / Fold change /veh 11764098_at / RFU SAMD14 (11745864_x_at) / Fold change /veh SAMD14 (11745864_x_at) / RFU NPB (11741838_a_at) / Fold change /veh NPB (11741838_a_at) / RFU TMPRSS6 (11731388_a_at) / Fold change /veh TMPRSS6 (11731388_a_at) / RFU KRTAP10-2 (11738614_at) / Fold change /veh KRTAP10-2 (11738614_at) / RFU ARHGAP8 /// PRR5-ARHGAP8 (11727945_x_at) / Fold change /veh ARHGAP8 /// PRR5-ARHGAP8 (11727945_x_at) / RFU KRTAP5-7 /// NADSYN1 (11734609_at) / Fold change /veh KRTAP5-7 /// NADSYN1 (11734609_at) / RFU RASL12 (11751679_a_at) / Fold change /veh RASL12 (11751679_a_at) / RFU CDKN2B (11736163_a_at) / Fold change /veh CDKN2B (11736163_a_at) / RFU PRF1 (11729649_at) / Fold change /veh PRF1 (11729649_at) / RFU, ZNF638 /// ZNF638-IT1 / Fold change vs veh, ZNF638 /// ZNF638-IT1 / RFU, PANK3 / Fold change vs veh, PANK3 / RFU, SH3YL1 / Fold change vs veh, SH3YL1 / RFU, ZEB2 / Fold change vs veh, ZEB2 / RFU, NRIP1 / Fold change vs veh, NRIP1 / RFU, PTTG1IP / Fold change vs veh, PTTG1IP / RFU, CAPN2 / Fold change vs veh, CAPN2 / RFU, MED14 / Fold change vs veh, MED14 / RFU, SNORA58 / Fold change vs veh, SNORA58 / RFU, C1orf63 / Fold change vs veh, C1orf63 / RFU, LRRFIP1 / Fold change vs veh, LRRFIP1 / RFU, NDUFAF7 / Fold change vs veh, NDUFAF7 / RFU, SLC12A2 / Fold change vs veh, SLC12A2 / RFU, IBTK / Fold change vs veh, IBTK / RFU, ESF1 / Fold change vs veh, ESF1 / Fold change vs veh, TMEM50B / RFU, TAOK1 / Fold change vs veh, TAOK1 / RFU, ACBD3 / Fold change vs veh, ACBD3 / RFU, TMA16 / Fold change vs veh, TMA16 / RFU, RWDD3 / Fold change vs veh, RWDD3 / RFU, BCAT1 / Fold change vs veh, BCAT1 / RFU, EDEM3 / Fold change vs veh, EDEM3 / RFU, TMEM33 / Fold change vs veh, TMEM33 / RFU, WDR75 / Fold change vs veh, WDR75 / RFU, AHCTF1 / Fold change vs veh, AHCTF1 / RFU, TFRC / Fold change vs veh, TFRC / RFU, ZDHHC17 / Fold change vs veh, ZDHHC17 / RFU, NOM1 / Fold change vs veh, NOM1 / RFU, ARL8B / Fold change vs veh, ARL8B / RFU, ZBTB11 / Fold change vs veh, ZBTB11 / RFU, TAMM41 / Fold change vs veh, TAMM41 / RFU, KIAA1704 /// LOC100996395 / Fold change vs veh, KIAA1704 /// LOC100996395 / RFU, ING1 / Fold change vs veh, ING1 / RFU, TRMT61B / Fold change vs veh, TRMT61B / RFU, FUBP3 / Fold change vs veh, FUBP3 / RFU, TP53 / Fold change vs veh, TP53 / RFU, TNKS2 / Fold change vs veh, TNKS2 / RFU, ZFP14 / Fold change vs veh, ZFP14 / RFU, ACTR2 / Fold change vs veh, ACTR2 / RFU, PPP3R1 / Fold change vs veh, PPP3R1 / RFU, PIK3R1 / Fold change vs veh, PIK3R1 / RFU, HNRNPA1 / Fold change vs veh, HNRNPA1 / RFU, RNF170 / Fold change vs veh, RNF170 / RFU, ZNF28 / Fold change vs veh, ZNF28 / RFU, RNGTT / Fold change vs veh, RNGTT / RFU, OGT / Fold change vs veh, OGT / RFU, BRD1 / Fold change vs veh, BRD1 / RFU, MARS / Fold change vs veh, MARS / RFU, ZNF655 / Fold change vs veh, ZNF655 / RFU, FAHD1 / Fold change vs veh, FAHD1 / RFU, BDP1 / Fold change vs veh, BDP1 / RFU, LRRCC1 / Fold change vs veh, LRRCC1 / RFU, ARID1A / Fold change vs veh, ARID1A / RFU, ZNF146 / Fold change vs veh, ZNF146 / RFU, ZNF330 / Fold change vs veh, ZNF330 / RFU, GPN3 / Fold change vs veh, GPN3 / RFU, C9orf123 / Fold change vs veh, C9orf123 / RFU, N4BP2L2 / Fold change vs veh, N4BP2L2 / RFU, ARFIP1 / Fold change vs veh, ARFIP1 / RFU, FAM179B / Fold change vs veh, FAM179B / RFU, BCL10 / Fold change vs veh, BCL10 / RFU, UHRF1BP1L / Fold change vs veh, UHRF1BP1L / RFU, BET1 / Fold change vs veh, BET1 / RFU, CNOT2 / Fold change vs veh, CNOT2 / RFU, ZNF268 / Fold change vs veh, ZNF268 / Fold change vs veh, ZNF507 / RFU, DGCR2 / Fold change vs veh, DGCR2 / RFU, WDSUB1 / Fold change vs veh, WDSUB1 / Fold change vs veh, HSP90B1 /// MIR3652 / RFU, ADSS / Fold change vs veh, ADSS / RFU, GK / Fold change vs veh, GK / RFU, ZNF148 / Fold change vs veh, ZNF148 / RFU, TAF9 / Fold change vs veh, TAF9 / RFU, SLC1A5 / Fold change vs veh, SLC1A5 / RFU, SLMO2 / Fold change vs veh, SLMO2 / RFU, ABCC4 / Fold change vs veh, ABCC4 / RFU, LOC101060439 /// RAP1B / Fold change vs veh, LOC101060439 /// RAP1B / RFU, RFX7 / Fold change vs veh, RFX7 / RFU, GTPBP10 / Fold change vs veh, GTPBP10 / RFU, CNEP1R1 / Fold change vs veh, CNEP1R1 / RFU, BIVM-ERCC5 /// ERCC5 / Fold change vs veh, BIVM-ERCC5 /// ERCC5 / RFU, ILF3 / Fold change vs veh, ILF3 / RFU 11762660_at / Fold change /veh 11762660_at / RFU VCAN (11757783_s_at) / Fold change /veh VCAN (11757783_s_at) / RFU DDX43 (11728927_at) / Fold change /veh DDX43 (11728927_at) / RFU KRT8 (11758188_x_at) / Fold change /veh KRT8 (11758188_x_at) / RFU NKD1 (11759106_at) / Fold change /veh NKD1 (11759106_at) / RFU SRD5A1 (11742802_a_at) / Fold change /veh SRD5A1 (11742802_a_at) / RFU TPSAB1 /// TPSB2 (11721975_s_at) / Fold change /veh TPSAB1 /// TPSB2 (11721975_s_at) / RFU GSTM3 (11746129_a_at) / Fold change /veh GSTM3 (11746129_a_at) / RFU IL23R (11737362_x_at) / Fold change /veh IL23R (11737362_x_at) / RFU TMEM51 (11727254_a_at) / Fold change /veh TMEM51 (11727254_a_at) / RFU PIWIL2 (11732686_x_at) / Fold change /veh PIWIL2 (11732686_x_at) / RFU ORM1 (11744905_x_at) / Fold change /veh ORM1 (11744905_x_at) / RFU CCDC152 (11743942_at) / Fold change /veh CCDC152 (11743942_at) / RFU ECM1 (11717891_a_at) / Fold change /veh ECM1 (11717891_a_at) / RFU IL23R (11748794_a_at) / Fold change /veh IL23R (11748794_a_at) / RFU TNFAIP8L3 (11732012_x_at) / Fold change /veh TNFAIP8L3 (11732012_x_at) / RFU MBOAT4 (11741988_at) / Fold change /veh MBOAT4 (11741988_at) / RFU 11764193_at / Fold change /veh 11764193_at / RFU TMEM53 (11763286_at) / Fold change /veh TMEM53 (11763286_at) / RFU MAGEB2 (11727129_at) / Fold change /veh MAGEB2 (11727129_at) / RFU TMEM200A (11744735_a_at) / Fold change /veh TMEM200A (11744735_a_at) / RFU CCDC152 (11751479_a_at) / Fold change /veh CCDC152 (11751479_a_at) / RFU FAM211A (11726209_a_at) / Fold change /veh FAM211A (11726209_a_at) / RFU RGS16 (11746705_a_at) / Fold change /veh RGS16 (11746705_a_at) / RFU VCAN (11755009_s_at) / Fold change /veh VCAN (11755009_s_at) / RFU RHOB (11743442_s_at) / Fold change /veh RHOB (11743442_s_at) / RFU RGS16 (11720943_a_at) / Fold change /veh RGS16 (11720943_a_at) / RFU RGS16 (11720944_at) / Fold change /veh RGS16 (11720944_at) / RFU, VPS4B / Fold change vs veh, VPS4B / RFU, CREB1 / Fold change vs veh, CREB1 / RFU, DNAJC13 / Fold change vs veh, DNAJC13 / RFU, GNAQ / Fold change vs veh, GNAQ / RFU, CDK5R1 / Fold change vs veh, CDK5R1 / RFU, ZRANB3 / Fold change vs veh, ZRANB3 / RFU, CUL4A / Fold change vs veh, CUL4A / RFU, CCNY / Fold change vs veh, CCNY / RFU, UFL1 / Fold change vs veh, UFL1 / RFU, COG3 / Fold change vs veh, COG3 / RFU, DIAPH2 / Fold change vs veh, DIAPH2 / RFU, SKA2 / Fold change vs veh, SKA2 / RFU, AFF3 / Fold change vs veh, AFF3 / RFU, LMF1 / Fold change vs veh, LMF1 / RFU, IPO11 / Fold change vs veh, IPO11 / RFU, DFFB / Fold change vs veh, DFFB / RFU, FOXP1 / Fold change vs veh, FOXP1 / RFU, CARD8 / Fold change vs veh, CARD8 / RFU, STRN3 / Fold change vs veh, STRN3 / RFU, ADK / Fold change vs veh, ADK / RFU, RASSF2 / Fold change vs veh, RASSF2 / RFU, WIPF1 / Fold change vs veh, WIPF1 / RFU, LARP1B / Fold change vs veh, LARP1B / RFU, RASA1 / Fold change vs veh, RASA1 / RFU, RB1 / Fold change vs veh, RB1 / RFU, PPFIA1 / Fold change vs veh, PPFIA1 / RFU, MAT2A / Fold change vs veh, MAT2A / RFU, CCT5 / Fold change vs veh, CCT5 / RFU, WDR92 / Fold change vs veh, WDR92 / RFU, CUX1 / Fold change vs veh, CUX1 / RFU, TTC7A / Fold change vs veh, TTC7A / RFU, TMEM135 / Fold change vs veh, TMEM135 / RFU, DEPTOR / Fold change vs veh, DEPTOR / RFU, CPM / Fold change vs veh, CPM / RFU, DNAJB6 / Fold change vs veh, DNAJB6 / RFU, CACNA2D3 / Fold change vs veh, CACNA2D3 / RFU, DTX4 / Fold change vs veh, DTX4 / RFU, TFCP2 / Fold change vs veh, TFCP2 / RFU, GMCL1 /// GMCL1P1 / Fold change vs veh, GMCL1 /// GMCL1P1 / RFU, AEBP2 / Fold change vs veh, AEBP2 / RFU, SNHG1 /// SNORD22 /// SNORD25 /// SNORD26 /// SNORD27 /// SNORD28 /// SNORD29 /// SNORD31 / Fold change vs veh, SNHG1 /// SNORD22 /// SNORD25 /// SNORD26 /// SNORD27 /// SNORD28 /// SNORD29 /// SNORD31 / Fold change (Aza/veh), C12orf56 (ProbeSet 11735607_a_at) / Fold change (ACY-1035/veh), C12orf56 (ProbeSet 11735607_a_at) / Fold change (Aza/veh), FGFR1OP (ProbeSet 11751329_s_at) / Fold change (ACY-1035/veh), FGFR1OP (ProbeSet 11751329_s_at) / Fold change (Aza/veh), VPS36 (ProbeSet 11739960_a_at) / Fold change (ACY-1035/veh), VPS36 (ProbeSet 11739960_a_at) / RFU SYPL1 (11715823_x_at) / Fold change /veh SYPL1 (11715823_x_at) / RFU IGFBP7 (11715501_s_at) / Fold change /veh IGFBP7 (11715501_s_at) / RFU REEP3 (11722064_at) / Fold change /veh REEP3 (11722064_at) / RFU IGLL1 (11728026_x_at) / Fold change /veh IGLL1 (11728026_x_at): dose or concentration left out as unconfirmed
Conditions: MV-4-11 cells, 48 hours

Compound: Nc1ccc(-c2cccs2)cc1NC(=O)c1ccc2c(c1)cc(C1CC1)n2CCN1CCOCC1 [ACY-1035]
- Fold change /veh ACY1 (11761880_at): 1.19
